Source: patent US9938560B2, “Methods for identifying modulators of Ras using nonlinear techniques” (Biodesy, Inc., priority 2012, dated 2018)

How the values were obtained:
GTP-bound K-RAS = GTP-bound K-RAS (Homo sapiens, UniProt P01116); conditions: previously shown, Grant et al., 2011; cited from earlier work
G12V K-Ras = molecular target: T1, G12V K-Ras (Homo sapiens, UniProt P01116, G12V); assay: SHG detection of structural change of constitutively active G12V K-Ras; format: binding; conditions: 10 μM; PyMPO-maleimide at Cys 118; FIG. 6B
T1 construct: made in house
T1 sequence (P01116 1-188 isoform P01116-2 G12V): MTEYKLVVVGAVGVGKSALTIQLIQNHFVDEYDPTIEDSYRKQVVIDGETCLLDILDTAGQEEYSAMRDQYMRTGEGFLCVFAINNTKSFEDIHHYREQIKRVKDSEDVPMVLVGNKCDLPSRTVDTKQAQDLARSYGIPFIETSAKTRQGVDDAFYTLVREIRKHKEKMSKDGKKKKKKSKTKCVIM
Protocol: PyMPO-SE is coupled to a G12V constitutively active mutant K-Ras (Abrams et al., Semin Oncol. 1996 February; 23(1):118-34) using one of the two protocols described in Example 3 above. Recombinant His-tagged (N-terminus) Ras proteins are prepared according to standard protocols (Hall et al., 2002, Proc. Nat. Acad. Sci., U.S.A., 99(19):12138-42). The Ras proteins prepared according to this protocol is bound to an SHG-active GTP analog (ATTO-390-GTP) or an SHG label is coupled to Cys 118 with PyMPO-maleimide, a cysteine-reactive dye in 0.1 M Tris pH 8.0, 20 mM NaCl, 0.5 mM TCEP, 5% glycerol and a 12:1 dye:protein ratio for one hour at room temperature. Unreacted dye is purified away by gel filtration. The resulting dye:protein ratio is determined spectrophotometrically.
Immobilized G12V mutant K-Ras is then exposed to compound 117028, which has been previously shown to decrease intracellular levels of GTP-bound K-RAS as well as to decrease activation of the Raf/Mek/Erk signaling pathway (Grant et al., 2011, PLoS One, 6(10):e25711, the disclosure of which is incorporated by reference herein). 10 μM of the compound in assay buffer is added over the wells followed by gentle mixing. Assay buffer was 20 mM Tris pH 8.0, 150 mM NaCl, 0.5 mM DTT, 0.15% DMSO. […]

wt H-Ras = molecular target: T2, wt H-Ras (Homo sapiens, UniProt P01112); assay: SHG detection of conformational change of labeled wt H-Ras tethered to a supported lipid bilayer; format: binding; conditions: cysteine-labeled H-Ras, serial dilutions, n=3; read-out: EC50 from SHG concentration response curve
T2 construct: fused on or other part: N-terminal 6x histidine tag, used to tether to Ni-NTA lipids; PyMPO-maleimide dye on native cysteine(s)
T2 sequence (P01112 whole entry, the tested form may be a part): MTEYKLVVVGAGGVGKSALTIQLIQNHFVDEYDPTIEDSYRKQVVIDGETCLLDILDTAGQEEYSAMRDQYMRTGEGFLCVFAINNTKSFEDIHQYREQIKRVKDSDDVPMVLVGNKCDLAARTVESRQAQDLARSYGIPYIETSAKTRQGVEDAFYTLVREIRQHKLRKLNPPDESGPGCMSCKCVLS
Protocol: Recombinant His-tagged (N-terminus) H-Ras protein was prepared according to standard protocols (6). The Ras protein prepared according to this protocol is bound to GDP. The protein was then labeled with PyMPO-maleimide, a cysteine-reactive dye in 0.1 M Tris pH 8.0, 20 mM NaCl, 0.5 mM TCEP, 5% glycerol and a 12:1 dye:protein ratio for one hour at room temperature. Unreacted dye was purified away by gel filtration. The resulting dye:protein ratio was 0.7:1 was determined spectrophotometrically. Cysteine-labeled Ras was then coupled directly to the membrane.
We labeled Ras using a standard protocol in pH 8.3 sodium bicarbonate buffer (Invitrogen, Inc.) and purified it by gel filtration and dialysis. Amine-labeled Ras was then coupled directly to the membrane.
Immediately before applying DOPC/DGS NTA (Ni) lipids, microscope slides were cleaned with Piranha wash for 20 minutes. […] Lateral mobility of the bilayers was confirmed by fluorescence recovery after photobleaching as known in the art. […]
PyMPO-SE was coupled to His-tagged wt K-Ras (Novus) using one of two protocols. […] The resulting dye:protein ratio was 0.7:1 as determined spectrophotometrically. […]
PyMPO-SE exposed to a blank bilayer (no protein) followed by washing led to no signal above background. Thus, the signal detected in the presence of protein after labeling is due to labeling of the protein itself while immobilized on the membrane. […]

[1] = test system: Raf/Mek/Erk signaling pathway; conditions: previously shown, Grant et al., 2011; cited from earlier work
Protein X [2] = assay: SHG (Biodesy) titration of ligands on Protein X bound to a supported lipid bilayer; format: binding; conditions: Protein X on SLB; endpoint mode after 3 minutes of exposure; average of different days
Protocol: PyMPO-SE is coupled to His-tagged Protein X using the protocol described in the above Examples. Unreacted dye is purified by gel filtration. The resulting dye:protein ratio is determined spectrophotometrically. The supported bilayer membrane with Ni-NTA lipid is prepared as described in the Examples above. Recombinant His-tagged Protein X is incubated with the lipid bilayer at 5 μM for 20 minutes to produce a baseline signal following wash-out of unbound Protein X. A single ligand (denoted 3, 4 or 5) is exposed to Protein X on the surface and changes to the baseline SHG signal are measured in real time. A titration of the shift in SHG signal for each of the ligands as a function of ligand concentration is performed in endpoint mode, comparing the SHG signal after 3 minutes of exposure to the ligand at a given concentration to the baseline signal before exposure to the ligand.

Protein X [3] = assay: Biacore binding to Protein X
Protein X [4] = assay: IC50 result for Protein X (independent biochemical assay)

Sequence of GTP-bound K-RAS (P01116 1-188 isoform P01116-2): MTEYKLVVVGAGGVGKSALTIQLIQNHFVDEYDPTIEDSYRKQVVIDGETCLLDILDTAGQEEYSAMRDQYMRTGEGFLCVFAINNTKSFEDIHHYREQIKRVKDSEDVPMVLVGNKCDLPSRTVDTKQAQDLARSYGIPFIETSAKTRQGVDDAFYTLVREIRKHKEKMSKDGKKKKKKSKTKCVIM

Row | Compound | intracellular levels of GTP-bound K-RAS (GTP-bound K-RAS) | effect on the conformation of G12V K-Ras (SHG), protein labeled at Cys 118 (G12V K-Ras) | EC50 (wt H-Ras) | activation of the Raf/Mek/Erk signaling pathway [1] | EC50 (Protein X [2]) | Biacore Result (Protein X [3]) | IC50 (Protein X [4])
1 | Oc1c(CN2CCN(c3ccccc3)CC2)cc(Br)c2cccnc12 [Compound 1, 5-bromo-7-[(4-phenylpiperazin-1-yl)methyl]quinolin-8-ol] | decrease | significant effect | 4400 nM | decrease |  |  | 
2 | O=C(CN1CCOCC1)NC1=Nc2ncccc2C(=O)NN1 [Compound 3] |  |  |  |  | 670 nM | Binds | 950 nM
